Key:
[1] = target: T1, recombinant human HDAC6 (Homo sapiens, UniProt Q9UBN7); assay: Enzymatic screening on recombinant human HDAC6; format: biochemical; details: Table 2; read-out: HDAC6 IC50
T1 sequence (Q9UBN7 1-1215): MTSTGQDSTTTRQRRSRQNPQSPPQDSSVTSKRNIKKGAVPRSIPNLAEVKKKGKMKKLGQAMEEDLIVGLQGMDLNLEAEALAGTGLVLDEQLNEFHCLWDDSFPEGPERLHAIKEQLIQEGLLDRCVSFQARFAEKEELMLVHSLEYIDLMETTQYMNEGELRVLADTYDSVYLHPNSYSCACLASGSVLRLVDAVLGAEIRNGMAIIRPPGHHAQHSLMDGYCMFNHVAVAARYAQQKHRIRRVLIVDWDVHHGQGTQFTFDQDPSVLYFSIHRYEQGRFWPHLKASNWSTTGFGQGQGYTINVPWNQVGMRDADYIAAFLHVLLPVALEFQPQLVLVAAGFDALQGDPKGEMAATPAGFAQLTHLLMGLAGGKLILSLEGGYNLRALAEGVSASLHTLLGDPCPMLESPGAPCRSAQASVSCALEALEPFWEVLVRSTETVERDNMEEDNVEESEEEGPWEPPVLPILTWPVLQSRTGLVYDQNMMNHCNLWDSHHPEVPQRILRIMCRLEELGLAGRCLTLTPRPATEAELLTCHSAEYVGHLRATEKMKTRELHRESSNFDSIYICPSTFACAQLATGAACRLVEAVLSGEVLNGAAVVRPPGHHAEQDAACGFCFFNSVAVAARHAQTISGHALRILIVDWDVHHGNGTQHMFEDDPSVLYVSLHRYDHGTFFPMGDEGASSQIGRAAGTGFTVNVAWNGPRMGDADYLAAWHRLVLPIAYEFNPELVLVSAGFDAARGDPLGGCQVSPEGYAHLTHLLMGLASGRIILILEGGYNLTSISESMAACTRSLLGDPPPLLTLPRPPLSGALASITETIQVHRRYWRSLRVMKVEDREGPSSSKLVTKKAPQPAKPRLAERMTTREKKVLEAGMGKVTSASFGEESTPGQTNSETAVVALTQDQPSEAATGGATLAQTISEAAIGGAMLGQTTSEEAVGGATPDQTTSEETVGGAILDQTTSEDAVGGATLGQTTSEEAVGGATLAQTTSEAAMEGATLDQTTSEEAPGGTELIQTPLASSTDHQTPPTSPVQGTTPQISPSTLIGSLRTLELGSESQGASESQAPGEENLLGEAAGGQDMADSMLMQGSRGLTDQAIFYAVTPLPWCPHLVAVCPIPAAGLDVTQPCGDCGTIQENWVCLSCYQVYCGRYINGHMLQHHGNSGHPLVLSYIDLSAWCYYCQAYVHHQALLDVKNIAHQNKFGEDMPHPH
Summary of the method: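 Buffer for substrate addition: 25 mM Tris-HCl pH 8, 130 mM NaCl, 0.05% Tween-20, 10% glycerol, substrate 2× concentrated (FdL, FdL-Green or trifluoroacetyl-lysine). Recombinant human HDAC was preincubated with compound at 30 °C beforehand, timing isoform-dependent, and the reaction was likewise run at 30 °C.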

[2] = tested on: B 697 promyelocytic cell line; assay: Cytotoxicity on 697 cell line (CellTiter 96); format: cell-based; details: 72 hours incubation, read-out: 697 TOXICITY
Description: (§1) Cytotoxic activity was evaluated on B 697 […] cell line for all synthesized compounds and on peripheral blood mononuclear cells (PBMCs) for compounds showing a good potency/selectivity profile.
(§2) Cells were seeded in plate (2×10^4 cells per well for 697, 5×10^5 cells per well for PBMCs). The test compounds (concentrations from 1.5 nM to 10000 nM for PBMCs and from 1 nM to 10000 nM for 697) were added after 24 hours and incubated 72 hours. The molecules cytotoxic activity was evaluated using CellTiter 96© Aqueous One Solution Cell Proliferation Assay (Promega), which measures the mitochondria function, following the manufacturer's instructions.

[3] = Stability to Phase I metabolism in rat S9 liver fraction; format: in vitro ADME; details: after 90 min, 37° C.
Summary of the method: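 Compounds were incubated with rat or human liver S9 fraction at 37 °C for up to 90 min. Reactions were quenched on ice with acidified acetonitrile and analysed by HPLC-UV or LC-MS/MS. Percent remaining versus time zero and intrinsic clearance were calculated.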

[4] = Stability in rat plasma; format: in vitro ADME; details: after 4 hours, 37° C.
Summary of the method: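 Compounds incubated at 37° C in rat or human plasma at 50 μM (UV/HPLC) or 1 or 2 μM (LC-MS/MS) for 0–4 h. Reaction stopped with acidified acetonitrile on ice; percent remaining versus initial amount and plasma half-life calculated.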

[5] = tested on: peripheral blood mononuclear cells (PBMCs); assay: Cytotoxicity on PBMCs (CellTiter 96); format: cell-based; details: PBMC, 72 h; read-out: PBMC TOXICITY (72 h)
Description: as §1, §2

SMILES | IC50 [1] | residual percentage in rat S9 fraction [3] | residual percentage in rat plasma [4] | IC50 [2] | IC50 [5]
Cn1c(Sc2c(F)cc(C(=O)NO)cc2F)nnc1-c1ccc(CN2CCCCC2)cc1 [comp. 16, 3,5-difluoro-N-hydroxy-4-((4-methyl-5-(4-(piperidin-1-ylmethyl)phenyl)-4H-1,2,4-triazol-3-yl)thio)benzamide] | 5 nM | 74% | 75% | 7880 nM | 7500 nM
Cn1c(Sc2ccc(C(=O)NO)cc2)nnc1-c1ccc2c(c1)OCO2 [comp. 84, 4-[[5-(1,3-benzodioxol-5-yl)-4-methyl-1,2,4-triazol-3-yl]sulfanyl]benzenecarbohydroxamic acid] | 21 nM |  |  | 5200 nM | 4500 nM
O=C(NO)c1ccc(Cn2nnc(-c3nccc4ccccc34)n2)cc1 [comp. 87, 4-[[5-(1-isoquinolyl)tetrazol-2-yl]methyl]benzenecarbohydroxamic acid] | 20 nM | 77% | 0% | 6660 nM | 6000 nM
COC(=O)c1ccc(Cc2nnn(Cc3c(F)cc(C(=O)NO)cc3F)n2)cc1 [comp. 154, methyl 4-[[2-[[2,6-difluoro-4-(hydroxycarbamoyl)phenyl]methyl]tetrazol-5-yl]methyl]benzoate] | 32 nM |  |  | 22700 nM | > 10000 nM
COC(=O)c1ccc(-c2nnnn2Cc2ccc(C(=O)NO)cc2)nc1 [comp. 157, methyl 6-[1-[[4-(hydroxycarbamoyl)phenyl]methyl]tetrazol-5-yl]pyridine-3-carboxylate] | 27 nM |  |  | 913 nM | 940 nM
Cn1c(Sc2c(F)cc(C(=O)NO)cc2F)nnc1-c1c(F)cccc1F [comp. 165, 4-[[5-(2,6-difluorophenyl)-4-methyl-1,2,4-triazol-3-yl]sulfanyl]-3,5-difluoro-benzenecarbohydroxamic acid] | 8 nM |  |  | 55300 nM | > 10000 nM
CN1CCN(c2cccc(-c3nnc(Sc4c(F)cc(C(=O)NO)cc4F)n3C)c2)CC1 [comp. 166, 3,5-difluoro-4-[[4-methyl-5-[3-(4-methylpiperazin-1-yl)phenyl]-1,2,4-triazol-3-yl]sulfanyl]benzenecarbohydroxamic acid] | 9 nM |  |  | 61400 nM | > 10000 nM
Nc1ccc(-c2nnnn2Cc2c(F)cc(C(=O)NO)cc2F)cc1 [comp. 172, 4-[[5-(4-aminophenyl)tetrazol-1-yl]methyl]-3,5-difluoro-benzenecarbohydroxamic acid] | 8 nM |  |  | 61400 nM | > 10000 nM
Cn1c(Sc2c(F)cc(C(=O)NO)cc2F)nnc1C1(c2cccnc2)CC1 [comp. 178, 3,5-difluoro-4-[[4-methyl-5-[1-(3-pyridyl)cyclopropyl]-1,2,4-triazol-3-yl]sulfanyl]benzenecarbohydroxamic acid] | 23 nM |  |  | 50300 nM | > 10000 nM
Cn1c(Sc2c(F)cc(C(=O)NO)cc2F)nnc1-c1cccc(CN2CCCCC2)c1 [comp. 181, 3,5-difluoro-4-[[4-methyl-5-[3-(1-piperidylmethyl)phenyl]-1,2,4-triazol-3-yl]sulfanyl]benzenecarbohydroxamic acid] | 10 nM |  |  | 50300 nM | > 10000 nM

More lines, main results first:

IC50 [1] | residual percentage in rat S9 fraction [3] | residual percentage in rat plasma [4] | SMILES | IC50 [2] | IC50 [5]
79 nM | 75% | 106% | Cc1nc(N2CCOCC2)sc1-c1nnc(Sc2c(F)cc(C(=O)NO)cc2F)n1C [comp. 9, 3,5-difluoro-N-hydroxy-4-((4-methyl-5-(4-methyl-2-morpholinothiazo-5-yl)-4H-1,2,4-triazol-3-yl)thio)benzamide] | > 10000 nM | > 10000 nM
4 nM | 75% | 116% | Cc1nc(N2CCOCC2)sc1-c1nnc(Cc2ccc(C(=O)NO)cc2)o1 [comp. 75, 4-[[5-(4-methyl-2-morpholino-thiazol-5-yl)-1,3,4-oxadiazol-2-yl]methyl]benzenecarbohydroxamic acid] | 1200 nM | 514 nM
3 nM | 8% | 93% | O=C(NO)c1ccc(Cn2nnnc2-c2ccc3ccccc3n2)cc1 [comp. 91, 4-[[5-(2-quinolyl)tetrazol-1-yl]methyl]benzenecarbohydroxamic acid] | 783 nM | 812 nM
61 nM |  |  | COC(=O)c1ccc(-c2nnn(Cc3ccc(C(=O)NO)cc3)n2)nc1 [comp. 156, methyl 6-[2-[[4-(hydroxycarbamoyl)phenyl]methyl]tetrazol-5-yl]pyridine-3-carboxylate] | 1570 nM | > 10000 nM
45 nM |  |  | Cn1c(Cc2cccc3cccnc23)nnc1Sc1c(F)cc(C(=O)NO)cc1F [comp. 164, 3,5-difluoro-4-[[4-methyl-5-(8-quinolylmethyl)-1,2,4-triazol-3-yl]sulfanyl]benzenecarbohydroxamic acid] | 1400 nM | 661 nM
2 nM |  |  | NCc1ccc(-c2nnn(Cc3ccc(C(=O)NO)cc3)n2)cc1 [comp. 173, 4-[[5-[4-(aminomethyl)phenyl]tetrazol-2-yl]methyl]benzenecarbohydroxamic acid] | 1890 nM | 948 nM
4 nM |  |  | NCc1ccc(-c2nnn(Cc3c(F)cc(C(=O)NO)cc3F)n2)cc1 [comp. 175, 4-[[5-[4-(aminomethyl)phenyl]tetrazol-2-yl]methyl]-3,5-difluoro-benzenecarbohydroxamic acid] | 10100 nM | 1260 nM
55 nM |  |  | NCc1ccc(-c2nnnn2Cc2c(F)cc(C(=O)NO)cc2F)cc1 [comp. 176, 4-[[5-[4-(aminomethyl)phenyl]tetrazol-1-yl]methyl]-3,5-difluoro-benzenecarbohydroxamic acid] | 50300 nM | 5300 nM
21 nM |  |  | Cn1c(Sc2c(F)cc(C(=O)NO)cc2F)nnc1C1(c2ccccn2)CC1 [comp. 177, 3,5-difluoro-4-[[4-methyl-5-[1-(2-pyridyl)cyclopropyl]-1,2,4-triazol-3-yl]sulfanyl]benzenecarbohydroxamic acid] | 50300 nM | > 10000 nM
16 nM |  |  | Cn1c(Sc2c(F)cc(C(=O)NO)cc2F)nnc1-c1cccc(CN2CCOCC2)c1 [comp. 182, 3,5-difluoro-4-[[4-methyl-5-[3-(morpholinomethyl)phenyl]-1,2,4-triazol-3-yl]sulfanyl]benzenecarbohydroxamic acid] | 50300 nM | ≥ 100000 nM
17 nM |  |  | CN(Cc1ccccc1)Cc1cccc(-c2nnc(Sc3c(F)cc(C(=O)NO)cc3F)n2C)c1 [comp. 184, 4-[[5-[3-[[benzyl(methyl)amino]methyl]phenyl]-4-methyl-1,2,4-triazol-3-yl]sulfanyl]-3,5-difluoro-benzenecarbohydroxamic acid] | 14700 nM | ≥ 100000 nM

Source: patent US11351178B2, “Selective HDAC6 inhibitors” (ITALFARMACO S.P.A., priority 2017, dated 2022)
